Experiment: Tensiometry (Du Noüy ring): surface tension breakpoints, surface properties, critical packing parameters
Type: physicochemical
Details: 25°C
Protocol: The force tensiometer is equipped with a platinum Du Noüy ring to surface tension measurement and a thermostatic vessel connected to a bath circulator (RW-0535G, Lab. Companion, Daejeon, Republic of Korea) in order to keep the temperature of the solution constant. Next, 15 mL of each sample was placed in a glass container and left to equilibrate in the thermostatic vessel. After temperature equilibration, the surface tension was measured. The equipment is a standalone-controlled instrument, and the calibration was conducted with a calibration weight with a known mass before measuring the samples. Each sample was measured five times, and the reported surface tension was the average value with an uncertainty of ±0.22 mN/m. Each solution was then assessed by a KSV’s contact angle goniometer CAM100 (Biolin Scientific, Gothenburg, Sweden). A drop of each solution was placed on a Teflon surface with a Hamilton syringe. This equipment is a PC-controlled instrument, and the tilt was set to 0 degrees at the base of the drop and was recorded for 10 frames with an interval of 1 s. The contact angle was calculated for the left and right sides of the drop and the mean value was the resulting contact angle. At least five different drops of each solution were recorded, and the reported contact angle was the resulting average with an uncertainty of ±5%.
After the evaluation of the CACs, other properties can be taken from the surface tension data. […] The n parameter is deduced from the degree of ionization of aggregates, α, as n = 2 − α, determined from the conductivity profile of the FIL and assumed to be the same for the surface layer in ionic surfactants.
From the Γmax and Avogadro’s number (NA) the minimum area occupied per surfactant molecule at the air/water interface, Amim, can be obtained as set by:(4) Amin=10^18/NAΓmax
In addition, the parameter that explains the efficacy of a surfactant to reduce the surface tension, ΠCAC, was determined, expressing the maximum surface tension diminution resulting from the dissolution of surfactant molecules. This parameter is determined by the surface tension of the solvent ( γ0 ) and the γCAC , as follows:(5) ΠCAC=γ0−γCAC
Them, from ΠCAC, the standard free energy of adsorption, ΔGad0 , was calculated using the following equation [55]:(6) ΔGad0=ΔGagg0−ΠCAC/Γmax
Finally, aiming to disclose information on the self-aggregation process and the shape of the aggregates, the critical packing parameter, P, was also calculated in this work, as follows:(7) P=V0/Aminlc where V0 and lc are the volume occupied by the hydrophobic chains in the aggregate core and the critical chain length, respectively. The structure of the aggregates is defined as spherical when P ≤ 0.33, cylindrical for P ≤ 0.5, lamellar when P ≤ 1, and inverted for P > 1 [38].

[1] = 5 μg/mL IFN-α 2b + 5 mM NaH2PO4 (pH=7.4), 1st breakpoint
[2] = 5 μg/mL IFN-α 2b + 5 mM NaH2PO4 (pH=7.4), 2nd breakpoint
[3] = 5 μg/mL IFN-α 2b + 5 mM NaH2PO4 (pH=7.4), 3rd breakpoint
[4] = 5 μg/mL IFN-α 2b + 5 mM NaH2PO4 (pH=7.4), 4th breakpoint

CCn1cc[n+](C)c1.O=S(=O)([O-])C(F)(F)C(F)(F)C(F)(F)C(F)(F)F [[C2C1Im][C4F9SO3], 1-Ethyl-3-methylimidazolium perfluorobutanesulfonate]
CAC (wFIL), tensiometer [1]: 0.0008
CAC, tensiometer [1]: 1.963 mmol⸱kg-1
surface tension at CAC, γCAC [1]: 51.4 mN m-1
CAC (wFIL), tensiometer [2]: 0.0025
CAC, tensiometer [2]: 6.105 mmol⸱kg-1
surface tension at CAC, γCAC [2]: 48.2 mN m-1
CAC (wFIL), tensiometer [3]: 0.0089
CAC, tensiometer [3]: 21.61 mmol⸱kg-1
surface tension at CAC, γCAC [3]: 38.3 mN m-1
10^6 Γmax, maximum surface excess concentration [4]: 4.41 mol m-2
Amin, minimum area per surfactant molecule at the air/water interface [4]: 0.38 nm2
CAC (wFIL), tensiometer [4]: 0.0335
CAC, tensiometer [4]: 81.59 mmol⸱kg-1
critical packing parameter Peq 8 [4]: 0.7439
critical packing parameter Peq 9 [4]: 0.7481
surface tension at CAC, γCAC [4]: 24.3 mN m-1
ΔG0ad, standard free energy of adsorption [4]: -7.734 kcal/mol
ΠCAC, efficacy to reduce the surface tension [4]: 37.8 mN m-1
10^6 Γmax, maximum surface excess concentration (5 mM NaH2PO4 (pH=7.4)): 3.26 mol m-2
Amin, minimum area per surfactant molecule at the air/water interface (5 mM NaH2PO4 (pH=7.4)): 0.51 nm2
CAC (wFIL), tensiometer (5 mM NaH2PO4 (pH=7.4)): 0.0330
CAC, tensiometer (5 mM NaH2PO4 (pH=7.4)): 80.35 mmol⸱kg-1
critical packing parameter Peq 8 (5 mM NaH2PO4 (pH=7.4)): 0.550
critical packing parameter Peq 9 (5 mM NaH2PO4 (pH=7.4)): 0.553
surface tension at CAC, γCAC (5 mM NaH2PO4 (pH=7.4)): 24.6 mN m-1
ΔG0ad, standard free energy of adsorption (5 mM NaH2PO4 (pH=7.4)): -9.8 kcal/mol
ΠCAC, efficacy to reduce the surface tension (5 mM NaH2PO4 (pH=7.4)): 46.4 mN m-1

Source: paper PMC9181987, “Disclosing the Potential of Fluorinated Ionic Liquids as Interferon-Alpha 2b Delivery Systems” (Nanomaterials, 2022)
